Results as given in ChEMBL document CHEMBL3352029, “Ring fusion strategy for the synthesis of anthra[2,3-d]oxazole-2-thione-5,10-dione homologues as DNA topoisomerase inhibitors and as antitumor agents” (Eur J Med Chem, 2014).
The source made the active and inactive calls. The rule behind the calls is not given here.

Assays:
[1] = Cytotoxicity against human PC3 cells assessed as inhibition of cell growth after 48 hrs by sulforhodamine B assay; type: functional, cell-based; conditions: PC-3, 48 h
[2] = biological target: T1, DNA topoisomerase 1 (Homo sapiens) (UniProt P11387); assay: Inhibition of human recombinant DNA topoisomerase 1 assessed as reduction in relaxation of supercoiled pHOT DNA at 25 to 50 uM incubated for 45 mins by ethidium bromide staining based gel electrophoresis
T1 sequence (whole entry): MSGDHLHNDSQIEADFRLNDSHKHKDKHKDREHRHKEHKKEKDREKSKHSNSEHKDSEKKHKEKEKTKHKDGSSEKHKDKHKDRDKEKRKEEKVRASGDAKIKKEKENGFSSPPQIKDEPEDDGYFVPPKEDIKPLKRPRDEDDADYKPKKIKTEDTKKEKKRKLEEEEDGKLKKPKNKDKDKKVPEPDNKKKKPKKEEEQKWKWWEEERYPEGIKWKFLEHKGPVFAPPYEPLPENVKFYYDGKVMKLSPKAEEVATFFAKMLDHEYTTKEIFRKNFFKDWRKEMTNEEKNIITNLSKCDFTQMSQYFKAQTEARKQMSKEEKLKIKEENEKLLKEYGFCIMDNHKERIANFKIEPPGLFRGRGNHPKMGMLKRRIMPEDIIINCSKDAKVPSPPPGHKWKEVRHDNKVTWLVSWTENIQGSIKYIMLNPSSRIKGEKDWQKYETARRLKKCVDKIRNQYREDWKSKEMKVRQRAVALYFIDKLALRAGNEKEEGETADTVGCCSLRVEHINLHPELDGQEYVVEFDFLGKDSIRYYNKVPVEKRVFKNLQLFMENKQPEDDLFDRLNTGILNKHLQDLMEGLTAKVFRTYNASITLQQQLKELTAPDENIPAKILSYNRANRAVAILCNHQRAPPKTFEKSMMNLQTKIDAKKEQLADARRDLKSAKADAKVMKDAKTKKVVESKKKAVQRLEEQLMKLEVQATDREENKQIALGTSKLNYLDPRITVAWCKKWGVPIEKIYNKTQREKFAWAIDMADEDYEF

| inhibition [2] | SMILES | IC50 [1] [µM] |
| --- | --- | --- |
| – | O=C1c2ccccc2C(=O)c2cc3oc(SCc4ccccc4)nc3cc21 | > 30 |
| Active | O=C1c2ccccc2C(=O)c2cc3oc(SCCCN4CCCCC4)nc3cc21 | 12.2 |
| – | O=C1c2ccccc2C(=O)c2cc3oc(SCc4ccc(F)cc4F)nc3cc21 | > 30 |
| – | O=C(CN1CCCCC1)Nc1cc2c(cc1O)C(=O)c1ccccc1C2=O | 18.5 |
| – | O=C1c2ccccc2C(=O)c2cc3oc(SCc4ccc([N+](=O)[O-])cc4)nc3cc21 | > 30 |
| – | O=C(CCN1CCOCC1)Nc1cc2c(cc1O)C(=O)c1ccccc1C2=O | > 30 |
